Consider 4 compounds from article PMC10569638 (PLOS ONE, 2023).

Like-named read-outs stand apart in the source and are kept apart here.

Type in all cases: cell-based
Assay [1] concerns the target T1, zebrafish αβδε nAChR (ε-type) (Danio rerio, UniProt A2BG85+Q75XT1+Q98880). Briefly: TEVC inhibition of ACh-elicited nAChR current in Xenopus oocytes, ε-type. Conditions: for Hill coefficient: inhibition, ε-type. Here is the method: (§1) The bath solution was ND96. […] Oocytes were incubated around 30 sec in the bath solution containing inhibitors of identical concentration. Recordings were performed at room temperature. Holding potential was -80 mV. Vecuronium and rocuronium were purchased from Tokyo Chemical Industry. Pancuronium and d-tubocurarine were purchased from Alomone Labs and FUJIFILM Wako Chemicals, respectively.
(§2) Fitting algorism is identical to that of ACh.

Assay [2] deals with T2, zebrafish αβδ nAChR (δ-type) (Danio rerio, UniProt Q75XT1+Q98880). Kind of assay: TEVC inhibition of ACh-elicited nAChR current in Xenopus oocytes, δ-type. Conditions: for Hill coefficient: inhibition, δ-type. How it is done:
as §1, §2

Assay [3] addresses zebrafish nAChR containing δ/ε/δ chimeric subunit (Danio rerio, UniProt A2BG85+Q75XT1+Q98880). Kind of assay: TEVC inhibition of nAChR current, α, β, δ + δ/ε/δ chimera. The settings on record: 100 μM ACh, mean ± sem. How it is done: as §1, §2
Assay [4] has as its target T1, zebrafish αβδε nAChR (ε-type). Briefly: Voltage-dependent block tested by ramp pulses, ε-type. The settings on record: 20 nM pancuronium. How it is done: (§3) To examine possible pore blocking activity of pancuronium, the voltage-dependent block was tested by ramp pulses in the presence of pancuronium.
(§4) Fig 10 Voltage-dependent change of the conductance in the presence and absence of pancuronium. (A1), (B1), Representative current traces of the ε-type (A1) and the δ-type (B1). The black and gray traces are in the absence and the presence of 20 nM pancuronium, respectively. Pulse protocols are shown at the bottom. (A2), (B2), Representative I-V curves of the ε-type (A2) and the δ-type (B2). (A3), (B3), G-V curves of the ε-type (A3) and the δ-type (B3). Data were normalized by the conductance at -100 mV. Data are shown as mean ± sem. (N = 9 for all data).

The target in assay [5] is zebrafish nAChR containing ε/δ/δ chimeric subunit (Danio rerio, UniProt A2BG85+Q75XT1+Q98880). Kind of assay: TEVC inhibition of nAChR current, α, β, δ + ε/δ/δ chimera. The settings on record: mean ± sem. How it is done: as §1, §2
zebrafish nAChR containing ε/δ/δ chimeric subunit, sequence (A2BG85 1-234, stated change not applied): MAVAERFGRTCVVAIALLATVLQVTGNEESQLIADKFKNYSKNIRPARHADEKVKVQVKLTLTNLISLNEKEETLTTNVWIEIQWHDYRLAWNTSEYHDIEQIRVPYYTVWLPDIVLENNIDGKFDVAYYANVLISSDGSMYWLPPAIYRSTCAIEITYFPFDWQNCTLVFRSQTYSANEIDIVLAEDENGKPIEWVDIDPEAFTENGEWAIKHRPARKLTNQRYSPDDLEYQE
zebrafish nAChR containing ε/δ/δ chimeric subunit, sequence (Q75XT1 235-518, stated change not applied): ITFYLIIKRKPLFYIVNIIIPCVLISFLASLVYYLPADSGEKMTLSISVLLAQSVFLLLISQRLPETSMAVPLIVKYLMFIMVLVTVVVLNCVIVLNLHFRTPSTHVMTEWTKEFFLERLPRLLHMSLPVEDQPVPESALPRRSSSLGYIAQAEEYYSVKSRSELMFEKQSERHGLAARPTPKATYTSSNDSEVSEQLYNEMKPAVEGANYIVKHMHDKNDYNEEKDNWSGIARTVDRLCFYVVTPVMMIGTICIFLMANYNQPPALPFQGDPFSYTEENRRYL
zebrafish nAChR containing ε/δ/δ chimeric subunit, sequence (Q98880 21-456, stated change not applied): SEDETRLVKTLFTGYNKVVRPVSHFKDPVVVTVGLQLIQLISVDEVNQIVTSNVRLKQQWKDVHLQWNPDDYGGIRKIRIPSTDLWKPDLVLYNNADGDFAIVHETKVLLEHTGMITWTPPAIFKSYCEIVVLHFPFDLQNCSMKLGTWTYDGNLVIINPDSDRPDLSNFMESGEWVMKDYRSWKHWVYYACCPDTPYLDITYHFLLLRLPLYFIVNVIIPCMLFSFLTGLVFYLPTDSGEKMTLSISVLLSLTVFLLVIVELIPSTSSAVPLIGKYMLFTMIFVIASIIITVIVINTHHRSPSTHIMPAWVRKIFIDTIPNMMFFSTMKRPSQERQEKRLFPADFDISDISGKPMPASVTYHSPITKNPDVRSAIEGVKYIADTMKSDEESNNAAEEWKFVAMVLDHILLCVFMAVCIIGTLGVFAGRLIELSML
zebrafish nAChR containing ε/δ/δ chimeric subunit, sequence (Q75XT1 235-518, stated change not applied): as the sequence (Q75XT1 235-518, stated change not applied) above
zebrafish nAChR containing ε/δ/δ chimeric subunit, sequence (G1FMP8 23-492 partner): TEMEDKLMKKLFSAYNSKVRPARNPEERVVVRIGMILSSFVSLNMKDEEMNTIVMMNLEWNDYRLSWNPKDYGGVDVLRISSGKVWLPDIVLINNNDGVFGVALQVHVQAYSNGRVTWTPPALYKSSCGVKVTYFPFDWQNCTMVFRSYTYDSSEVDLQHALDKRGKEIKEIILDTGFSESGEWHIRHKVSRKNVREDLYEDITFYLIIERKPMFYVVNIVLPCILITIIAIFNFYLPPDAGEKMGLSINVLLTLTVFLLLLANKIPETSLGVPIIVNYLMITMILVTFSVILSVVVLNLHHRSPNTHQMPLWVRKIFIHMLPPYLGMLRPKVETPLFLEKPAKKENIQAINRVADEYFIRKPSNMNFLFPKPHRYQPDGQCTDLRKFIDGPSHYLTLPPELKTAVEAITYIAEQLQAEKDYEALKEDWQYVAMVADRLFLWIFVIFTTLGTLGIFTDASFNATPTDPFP
Assay [6] addresses zebrafish nAChR containing δ/ε/ε chimeric subunit (Danio rerio, UniProt A2BG85+Q75XT1+Q98880). Briefly: TEVC inhibition of nAChR current, α, β, δ + δ/ε/ε chimera. Conditions: mean ± sem. How it is done:
as §1, §2

Assay [7] addresses zebrafish nAChR containing δ/δ/ε chimeric subunit (Danio rerio, UniProt A2BG85+Q75XT1+Q98880). Briefly: TEVC inhibition of nAChR current, α, β, δ + δ/δ/ε chimera. Conditions: 100 μM ACh, mean ± sem. How it is done: as §1, §2
In assay [8] the target is T2, zebrafish αβδ nAChR (δ-type). Briefly: Voltage-dependent block tested by ramp pulses, δ-type. Conditions: 20 nM pancuronium. How it is done:
as §3, §4

For assay [9], the target named is zebrafish nAChR containing ε/δ/ε chimeric subunit (Danio rerio, UniProt A2BG85+Q75XT1+Q98880). Briefly: TEVC inhibition of nAChR current, α, β, δ + ε/δ/ε chimera. The settings on record: 100 μM ACh, mean ± sem. How it is done:
as §1, §2

For assay [10], the target named is zebrafish nAChR containing ε/ε/δ chimeric subunit (Danio rerio, UniProt A2BG85+Q75XT1+Q98880). Kind of assay: TEVC inhibition of nAChR current, α, β, δ + ε/ε/δ chimera. Conditions: 100 μM ACh, mean ± sem. Here is the method: as §1, §2
The mark [11] stands for this setting: IC50, ε-type, current elicited by 100 μM ACh, -80 mV, mean ± sem.
The mark [12] stands for this setting: IC50, δ-type, current elicited by 100 μM ACh, -80 mV, mean ± sem.

As usually defined, the IC50 is the point on the concentration scale where inhibition reaches its midpoint. For orientation: Hill coefficient means a measure of the steepness of the concentration-response curve.

T2 sequence (Q98880 21-456): as the sequence (Q98880 21-456, stated change not applied) above
T2 sequence (Q75XT1 22-518): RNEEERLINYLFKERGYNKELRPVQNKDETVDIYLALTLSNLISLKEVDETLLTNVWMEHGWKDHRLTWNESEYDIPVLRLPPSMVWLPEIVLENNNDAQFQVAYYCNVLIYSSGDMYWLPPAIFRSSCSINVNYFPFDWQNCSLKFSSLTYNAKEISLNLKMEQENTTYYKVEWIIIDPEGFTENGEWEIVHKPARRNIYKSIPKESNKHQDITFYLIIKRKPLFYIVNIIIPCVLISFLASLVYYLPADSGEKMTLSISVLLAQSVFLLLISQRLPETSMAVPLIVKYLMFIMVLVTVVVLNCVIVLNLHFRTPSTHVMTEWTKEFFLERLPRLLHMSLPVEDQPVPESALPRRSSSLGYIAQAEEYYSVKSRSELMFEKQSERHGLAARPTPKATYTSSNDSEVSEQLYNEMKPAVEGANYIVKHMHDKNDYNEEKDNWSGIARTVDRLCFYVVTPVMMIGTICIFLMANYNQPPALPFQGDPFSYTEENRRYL
T2 sequence (G1FMP8 23-492 partner): as the sequence (G1FMP8 23-492 partner) above
T1 sequence (Q98880 21-456): as the sequence (Q98880 21-456, stated change not applied) above
T1 sequence (Q75XT1 22-518): as the sequence (Q75XT1 22-518) above
T1 sequence (A2BG85 27-517): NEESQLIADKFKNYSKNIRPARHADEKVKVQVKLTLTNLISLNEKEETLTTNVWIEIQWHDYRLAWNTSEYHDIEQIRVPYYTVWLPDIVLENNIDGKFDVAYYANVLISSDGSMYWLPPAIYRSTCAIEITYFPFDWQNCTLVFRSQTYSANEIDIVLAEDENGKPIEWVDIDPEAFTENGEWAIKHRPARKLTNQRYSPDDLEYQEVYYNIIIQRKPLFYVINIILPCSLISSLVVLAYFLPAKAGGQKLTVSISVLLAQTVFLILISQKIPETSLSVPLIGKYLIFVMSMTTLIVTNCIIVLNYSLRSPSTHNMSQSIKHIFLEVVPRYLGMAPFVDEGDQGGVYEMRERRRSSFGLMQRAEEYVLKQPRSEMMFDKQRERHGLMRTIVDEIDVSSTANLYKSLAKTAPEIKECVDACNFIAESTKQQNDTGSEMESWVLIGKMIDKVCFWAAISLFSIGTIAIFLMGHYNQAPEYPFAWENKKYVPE
T1 sequence (G1FMP8 23-492 partner): as the sequence (G1FMP8 23-492 partner) above
zebrafish nAChR containing δ/ε/ε chimeric subunit, sequence (Q75XT1 1-234, stated change not applied): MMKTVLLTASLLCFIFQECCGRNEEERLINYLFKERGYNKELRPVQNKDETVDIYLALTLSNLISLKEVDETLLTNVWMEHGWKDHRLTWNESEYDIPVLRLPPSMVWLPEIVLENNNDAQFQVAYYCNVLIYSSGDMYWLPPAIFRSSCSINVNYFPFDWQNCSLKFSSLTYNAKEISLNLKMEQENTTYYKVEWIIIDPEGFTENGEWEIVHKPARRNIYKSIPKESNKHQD
zebrafish nAChR containing δ/ε/ε chimeric subunit, sequence (A2BG85 235-517, stated change not applied): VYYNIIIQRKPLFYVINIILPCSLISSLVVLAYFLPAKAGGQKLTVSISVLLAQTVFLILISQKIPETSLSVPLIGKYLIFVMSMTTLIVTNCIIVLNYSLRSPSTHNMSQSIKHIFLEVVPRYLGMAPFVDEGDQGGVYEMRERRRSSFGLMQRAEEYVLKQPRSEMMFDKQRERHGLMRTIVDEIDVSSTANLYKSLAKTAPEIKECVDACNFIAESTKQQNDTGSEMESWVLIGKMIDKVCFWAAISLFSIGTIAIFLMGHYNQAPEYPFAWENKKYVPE
zebrafish nAChR containing δ/ε/ε chimeric subunit, sequence (Q98880 21-456, stated change not applied): as the sequence (Q98880 21-456, stated change not applied) above
zebrafish nAChR containing δ/ε/ε chimeric subunit, sequence (Q75XT1 1-234, stated change not applied): as the sequence (Q75XT1 1-234, stated change not applied) above
zebrafish nAChR containing δ/ε/ε chimeric subunit, sequence (G1FMP8 23-492 partner): as the sequence (G1FMP8 23-492 partner) above

For `COc1cc2c3cc1Oc1cc(ccc1O)C[C@@H]1c4c(cc(OC)c(O)c4Oc4ccc(cc4)C[C@@H]3N(C)CC2)CC[N+]1(C)C` [d-tubocurarine], the IC50 in [1] is 112 ± 8.2 nM; in assay [2], 123 ± 18.7 nM. Also, the Hill coefficient is given as 1.2 ± 0.1 in [1] (100 μM ACh, mean ± sem) and 1.1 ± 0.1 in assay [2] (100 μM ACh, mean ± sem).

In the case of `C=CC[N+]1([C@H]2C[C@H]3[C@@H]4CC[C@H]5C[C@H](O)[C@@H](N6CCOCC6)C[C@]5(C)[C@H]4CC[C@]3(C)[C@H]2OC(C)=O)CCCC1` [rocuronium], the half-maximal inhibitory concentration (IC50) in [1] (setting [11]) worked out at 4.7 ± 0.7 nM; in [2] (setting [12]) it was 4.2 ± 0.7 nM. Also, the Hill coefficient in assay [1] (100 μM ACh, mean ± sem) turned out to be 0.7 ± 0.1; in [2] (100 μM ACh, mean ± sem), 1.1 ± 0.1.

`CC(=O)O[C@H]1C[C@@H]2CC[C@@H]3[C@H](CC[C@@]4(C)[C@H]3C[C@H]([N+]3(C)CCCCC3)[C@@H]4OC(C)=O)[C@@]2(C)C[C@@H]1[N+]1(C)CCCCC1` [pancuronium]: the Hill coefficient in [3] is recorded as 1.0 ± 0.1; in [1] (100 μM ACh, mean ± sem), 1.1 ± 0.1; in assay [1] (by 2 μM ACh, mean ± sem), 1.1 ± 0.2; in [2] (100 μM ACh, mean ± sem), 1.3 ± 0.4; in [2] (by 2 μM ACh, mean ± sem), 1.1 ± 0.2; in assay [5] (100 μM ACh), 1.7 ± 0.5. Moreover, the Hill coefficient was 1.4 ± 0.5 in [5] (by 2 μM ACh); 1.0 ± 0.0 in assay [6] (100 μM ACh); 1.8 ± 1.0 in [6] (by 2 μM ACh); 1.0 ± 0.1 in assay [7]; 0.9 ± 0.1 in [9]; 1.8 ± 0.3 in assay [10]. Besides, the results for the voltage-dependent block result in [4] and in assay [8] were “the specific blockage of outward or inward current by pancuronium was not observed” and “voltage dependency of block was again not observed”, respectively. For the same compound, the 50% inhibitory concentration (IC50) came out at 12.5 ± 1.9 nM in [1] (IC50, ε-type, by 2 μM ACh, mean ± sem); 15.6 ± 1 nM in [1] (setting [11]); 109 ± 30.9 nM in assay [2] (IC50, δ-type, by 2 μM ACh, mean ± sem); 116 ± 29.2 nM in assay [2] (setting [12]).

As to `CC(=O)O[C@H]1C[C@@H]2CC[C@@H]3[C@H](CC[C@@]4(C)[C@H]3C[C@H]([N+]3(C)CCCCC3)[C@@H]4OC(C)=O)[C@@]2(C)C[C@@H]1N1CCCCC1` [vecuronium], the figures for the 50% inhibitory concentration (IC50) in [1] (setting [11]) and in [2] (setting [12]) were 1.1 ± 0.2 nM and 0.7 ± 0.1 nM, respectively. Also, the Hill coefficient in [1] (100 μM ACh, mean ± sem) is recorded as 1.3 ± 0.2; in assay [2] (100 μM ACh, mean ± sem), 1.0 ± 0.1.
